Source: patent US20260364080A1, “PYRAZOLO-PYRIMIDINONE COMPOUNDS FOR USE IN METHODS OF INHIBITING WEE1 A KINASE” (Acrivon Therapeutics, Inc., priority 2023, published 2026)
Read-outs that look alike come from different tables or passages of the source.

Legend:
ACHN cells = assay: Cell Titer Glo viability assay, ACHN cells; format: cell-based; conditions: 144 h, absolute EC50
Description: Each of an ACHN renal cell carcinoma cell line (ATCC) and a DAOY medulloblastoma cell line, and an A427 lung cancer line were cultured in Minimum Essential Medium Eagle supplemented with 10% fetal calf serum (Sigma), 1% Penicillin-Streptomycin and 10 mM HEPES buffer (HyClone). Cell cultures were kept in a humidified incubator at 37 °C and 5% CO2. Cells were routinely tested for Mycoplasma contamination.
ACHN cells, DAOY cells, or A427 cells were seeded at a density of 400, 250, or 500 cells per well respectively, in tissue culture treated 384 well plates (Corning Costar). After overnight incubation, cells were treated with drugs at concentrations ranging from 17 to 10 000 nM. Viability compared to untreated control was assessed at 144 h using Cell Titer Glo assay 2.0 (Promega). […] “NT” means the compounds was not tested in the indicated cells.

[1] = target: T1, Wee1A kinase (CDK1 Tyr15 phosphorylation in ACHN renal cell carcinoma cells) (Homo sapiens, UniProt P30291); assay: High-content imaging of pCdk1 Y15, Wee1A kinase target engagement in ACHN cells; format: cell-based
T1 construct: pCDK1 Tyr15 immunofluorescence read-out
T1 sequence (P30291 whole entry): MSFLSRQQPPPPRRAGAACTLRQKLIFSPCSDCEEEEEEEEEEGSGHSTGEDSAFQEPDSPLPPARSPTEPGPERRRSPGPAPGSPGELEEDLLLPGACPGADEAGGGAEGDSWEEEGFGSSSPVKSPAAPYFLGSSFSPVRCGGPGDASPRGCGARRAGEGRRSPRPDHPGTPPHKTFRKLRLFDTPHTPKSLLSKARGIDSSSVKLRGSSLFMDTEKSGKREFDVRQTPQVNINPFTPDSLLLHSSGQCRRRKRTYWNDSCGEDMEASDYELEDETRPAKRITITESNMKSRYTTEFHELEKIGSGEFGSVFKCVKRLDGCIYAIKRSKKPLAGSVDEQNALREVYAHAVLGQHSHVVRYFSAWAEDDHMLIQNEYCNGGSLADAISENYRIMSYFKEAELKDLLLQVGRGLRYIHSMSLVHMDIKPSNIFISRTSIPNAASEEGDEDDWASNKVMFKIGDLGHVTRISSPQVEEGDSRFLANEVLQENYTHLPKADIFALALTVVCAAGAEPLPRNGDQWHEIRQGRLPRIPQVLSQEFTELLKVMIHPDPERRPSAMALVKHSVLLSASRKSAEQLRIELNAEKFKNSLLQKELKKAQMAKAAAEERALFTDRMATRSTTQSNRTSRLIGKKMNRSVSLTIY
In short: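 EC50 values come from the per-well fraction of cells with nuclear pCdk1 Y15 staining, normalised to DMSO control, by automated immunofluorescence imaging. Cells were ACHN renal carcinoma, treated 4 h with compound at 7–5,000 nM or 0.3–200 nM.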

[2] = target: T2, recombinant human Wee1A kinase (Homo sapiens, UniProt P30291); assay: Wee1A kinase binding assay (LanthaScreen Eu time-resolved FRET)
T2 construct: full length Wee1 kinase was expressed by baculovirus in insect cells; purchased Invitrogen PV3817; host or cells: insect cells (baculovirus)
T2 sequence (P30291 whole entry): as above
In short: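 Full-length, baculovirus-expressed GST-tagged Wee1A (5 nM) was mixed with 2 nM Eu-anti-GST antibody, 30 nM kinase tracer 178 and compound (1% DMSO). Buffer was 50 mM HEPES pH 7.5, 10 mM MgCl2, 1 mM EGTA, 0.01% Brij-35, incubated 60 min at room temperature. TR-FRET 665/615 nm emission ratios from duplicates were curve-fitted.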

[3] = target: T3, Myt1 kinase (recombinant PMYT-1) (Homo sapiens, UniProt Q99640); assay: Myt1 kinase binding assay (LanthaScreen Eu Kinase Binding Assay)
T3 construct: full length PMYT-1 was expressed by baculovirus in insect cells; purchased Invitrogen A30984; host or cells: insect cells (baculovirus)
T3 sequence (Q99640 1-499): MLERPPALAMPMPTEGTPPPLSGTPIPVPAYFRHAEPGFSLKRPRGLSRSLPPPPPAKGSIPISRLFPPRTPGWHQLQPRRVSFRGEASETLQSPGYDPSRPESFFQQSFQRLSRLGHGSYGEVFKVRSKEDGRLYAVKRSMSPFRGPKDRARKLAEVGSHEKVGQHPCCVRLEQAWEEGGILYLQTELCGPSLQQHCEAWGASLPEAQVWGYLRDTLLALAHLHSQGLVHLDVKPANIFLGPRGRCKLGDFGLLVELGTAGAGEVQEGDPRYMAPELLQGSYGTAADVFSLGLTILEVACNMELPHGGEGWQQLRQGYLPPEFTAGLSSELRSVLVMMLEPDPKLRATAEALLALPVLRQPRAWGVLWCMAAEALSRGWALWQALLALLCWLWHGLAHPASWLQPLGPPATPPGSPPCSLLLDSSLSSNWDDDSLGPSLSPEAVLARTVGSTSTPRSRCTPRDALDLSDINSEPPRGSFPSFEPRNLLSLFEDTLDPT
In short: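 Compound binding to Myt1 kinase was assessed using the LanthaScreen Eu Kinase Binding Assay. This europium-based binding format was applied to quantify how strongly each compound bound to the Myt1 enzyme, and the binding affinity was reported for each compound as an IC50 value.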

[4] = 4 h treatment, nuclear positivity for pCdk1 Y15 vs DMSO control, read-out: CDK1 Tyr15 Phosphorylation EC50
[5] = 30 nM tracer 178, 5 nM Wee1A kinase, 2 nM Eu-labeled antibody, 60 minutes at room temperature, read-out: Wee1A kinase Binding IC50
[6] = 3 nM tracer 178, 2.5 nM PMYT-1, 1 nM Eu-labeled antibody, read-out: Myt1 kinase Binding IC50
[7] = read-out: CDK1 Tyr15 Phosphorylation EC50, 4 h treatment, nuclear positivity for pCdk1 Y15 vs DMSO control
[8] = Myt1 kinase Binding IC50, 3 nM tracer 178, 2.5 nM PMYT-1, 1 nM Eu-labeled antibody

SMILES | EC50 (ACHN cells; Homo sapiens) [nM] | EC50 [1, 4] [nM] | IC50 [2, 5] [nM] | IC50 [3, 6] [nM] | EC50 [1, 7] [nM] | IC50 [2] [nM] | EC50 (ACHN cells) [nM] | IC50 [3, 8] [nM]
CCn1c(=O)c2cnc(Nc3ccc4c(cnn4C)c3)nc2n1-c1cccc(N(C)C2CCN(C)CC2)n1 [Compound 287, 1-{6-[N-methyl(1-methyl-4-piperidyl)amino]-2-pyridyl}-2-ethyl-6-(1-methyl-1H-indazol-5-ylamino)-1,2-dihydro-3H-1,2,5,7-tetraazainden-3-one] | 100 to 500 | – | – | – | < 100 | < 10 | – | –
C=CCn1c(=O)c2cnc(Nc3ccc(Cl)cc3)nc2n1-c1cccc(N[C@@H]2CCCNC2)n1 [Compound 166, 1-{6-[(R)-3-piperidylamino]-2-pyridyl}-2-allyl-6-(p-chlorophenylamino)-1,2-dihydro-3H-1,2,5,7-tetraazainden-3-one] | – | > 1000 | < 10 | 100 to 500 | – | – | – | –
C=CCn1c(=O)c2cnc(Nc3cnn(C)c3)nc2n1-c1cccc(N(C)C2CCN(C)CC2)n1 [Compound 184, 1-{6-[methyl(1-methylpiperidin-4-yl)amino]pyridin-2-yl}-6-[(1-methyl-1H-pyrazol-4-yl)amino]-2-(prop-2-en-1-yl)-1H,2H,3H-pyrazolo[3,4-d]pyrimidin-3-one] | – | – | – | – | 100 to 500 | < 10 | – | > 500
CCn1c(=O)c2cnc(Nc3cccc(-c4ccccc4)c3)nc2n1-c1cccc(OC2CCNCC2)n1 [Compound 338, 6-(3-biphenylylamino)-2-ethyl-1-[6-(4-piperidyloxy)-2-pyridyl]-1,2-dihydro-3H-1,2,5,7-tetraazainden-3-one] | – | > 1000 | < 10 | 20 to 100 | – | – | – | –
C=CCn1c(=O)c2cnc(Nc3cc(Cl)cc(Br)c3)nc2n1-c1cccc(NC2CCNCC2)n1 [Compound 144, 6-[(3-bromo-5-chlorophenyl)amino]-1-{6-[(piperidin-4-yl)amino]pyridin-2-yl}-2-(prop-2-en-1-yl)-1H,2H,3H-pyrazolo[3,4-d]pyrimidin-3-one] | – | 500 to 1000 | < 10 | > 500 | – | – | – | –
C=CCn1c(=O)c2cnc(Nc3ccc(Cl)cc3)nc2n1-c1cccc(O[C@H]2CN3CCC2CC3)n1 [Compound 176, 1-{6-[(3R)-1-azabicyclo[2.2.2]octan-3-yloxy]pyridin-2-yl}-6-[(4-chlorophenyl)amino]-2-(prop-2-en-1-yl)-1H,2H,3H-pyrazolo[3,4-d]pyrimidin-3-one] | – | – | – | – | > 1000 | < 10 | – | > 500
C=CCn1c(=O)c2cnc(Nc3ccc4nccn4c3)nc2n1-c1cccc(OC2CCNCC2)n1 [Compound 324, 6-(1,3a-diaza-5-indenylamino)-2-allyl-1-[6-(4-piperidyloxy)-2-pyridyl]-1,2-dihydro-3H-1,2,5,7-tetraazainden-3-one] | – | > 1000 | < 10 | 20 to 100 | – | – | – | –
C=CCn1c(=O)c2cnc(Nc3ccc(Cl)cc3)nc2n1-c1cccc(N[C@H]2CCCNC2)n1 [Compound 165, 1-{6-[(S)-3-piperidylamino]-2-pyridyl}-2-allyl-6-(p-chlorophenylamino)-1,2-dihydro-3H-1,2,5,7-tetraazainden-3-one] | – | 500 to 1000 | < 10 | 20 to 100 | – | – | – | –
CCn1c(=O)c2cnc(Nc3cccc(-c4cncnc4)c3)nc2n1-c1cccc(OC2CCNCC2)n1 [Compound 366, 2-ethyl-1-[6-(4-piperidyloxy)-2-pyridyl]-6-[m-(5-pyrimidinyl)phenylamino]-1,2-dihydro-3H-1,2,5,7-tetraazainden-3-one] | – | 500 to 1000 | < 10 | 100 to 500 | – | – | – | –
C=CCn1c(=O)c2cnc(Nc3ccc(C#N)c(C)c3)nc2n1-c1cccc(NC2CCNCC2)n1 [Compound 134, 2-methyl-4-[(3-oxo-1-{6-[(piperidin-4-yl)amino]pyridin-2-yl}-2-(prop-2-en-1-yl)-1H,2H,3H-pyrazolo[3,4-d]pyrimidin-6-yl)amino]benzonitrile] | – | > 1000 | < 10 | 100 to 500 | – | – | – | –

Results, then the molecule that gave them:

EC50 (ACHN cells; Homo sapiens) [nM] | EC50 [1, 4] [nM] | IC50 [2, 5] [nM] | IC50 [3, 6] [nM] | EC50 [1, 7] [nM] | IC50 [2] [nM] | EC50 (ACHN cells) [nM] | IC50 [3, 8] [nM] | SMILES
≤ 100 | < 100 | < 10 | < 20 | – | – | – | – | C=CCn1c(=O)c2cnc(Nc3ccc(OCCCF)cc3)nc2n1-c1cccc(OC2CCNCC2)n1 [Compound 377]
– | < 100 | – | 100 to 500 | – | – | ≤ 100 | – | C=CCn1c(=O)c2cnc(Nc3ccc4ccoc4c3)nc2n1-c1cccc(OC2CCN(C)CC2)n1 [Compound 195]
100 to 500 | < 100 | < 10 | – | – | – | – | – | C=CCn1c(=O)c2cnc(Nc3ccc4c(cnn4C)c3)nc2n1-c1cccc(O[C@@H]2CCCN(C)C2)n1 [Compound 331, 6-[(1-methyl-1H-indazol-5-yl)amino]-1-(6-{[(3R)-1-methylpiperidin-3-yl]oxy}pyridin-2-yl)-2-(prop-2-en-1-yl)-1H,2H,3H-pyrazolo[3,4-d]pyrimidin-3-one]
– | 100 to 500 | < 10 | 100 to 500 | – | – | – | – | C=CCn1c(=O)c2cnc(Nc3ccc4c(cnn4C)c3)nc2n1-c1cccc(O[C@@H]2CCNC2)n1 [Compound 101, 1-{6-[(R)-3-pyrrolidinyloxy]-2-pyridyl}-2-allyl-6-(1-methyl-1H-indazol-5-ylamino)-1,2-dihydro-3H-1,2,5,7-tetraazainden-3-one]
– | < 100 | < 10 | 20 to 100 | – | – | – | – | CCn1c(=O)c2cnc(Nc3ccc4c(ccn4C)c3)nc2n1-c1cccc(OC2CCNCC2)n1 [Compound 353, 2-ethyl-6-((1-methyl-1H-indol-5-yl)amino)-1-(6-(piperidin-4-yloxy)pyridin-2-yl)-1,2-dihydro-3H-pyrazolo[3,4-d]pyrimidin-3-one]
– | < 100 | < 10 | 20 to 100 | – | – | – | – | C=CCn1c(=O)c2cnc(Nc3ccc4c(cnn4C)c3)nc2n1-c1cccc(OC2CCNC(C)C2)n1 [Compound 404, rel-2-allyl-6-((1-methyl-1H-indazol-5-yl)amino)-1-(6-(((2R,4R)-2-methylpiperidin-4-yl)oxy)pyridin-2-yl)-1,2-dihydro-3H-pyrazolo[3,4-d]pyrimidin-3-one]
– | < 100 | < 10 | < 20 | – | – | – | – | C=CCn1c(=O)c2cnc(Nc3ccc4nc(C)sc4c3)nc2n1-c1cccc(OC2CCNCC2)n1 [Compound 264, 2-allyl-6-(2-methyl-1,3-benzothiazol-6-ylamino)-1-[6-(4-piperidyloxy)-2-pyridyl]-1,2-dihydro-3H-1,2,5,7-tetraazainden-3-one]
– | < 100 | < 10 | 100 to 500 | – | – | – | – | C=CCn1c(=O)c2cnc(Nc3ccc4c(cnn4C)c3)nc2n1-c1cccc(O[C@@H]2CCN(C)[C@H](C)C2)n1 (stereo in doubt) [Compound 382, 2-allyl-1-(6-(((2R,4R)-1,2-dimethylpiperidin-4-yl)oxy)pyridin-2-yl)-6-((1-methyl-1H-indazol-5-yl)amino)-1,2-dihydro-3H-pyrazolo[3,4-d]pyrimidin-3-one]
– | 100 to 500 | < 10 | < 20 | – | – | – | – | CCn1c(=O)c2cnc(Nc3ccc(-c4cnn(C)c4)cc3)nc2n1-c1cccc(OC2CCNCC2)n1 [Compound 271, 2-ethyl-6-[p-(1-methyl-4-pyrazolyl)phenylamino]-1-[6-(4-piperidyloxy)-2-pyridyl]-1,2-dihydro-3H-1,2,5,7-tetraazainden-3-one]
